Data on 102 compounds can be found in ChEMBL document CHEMBL3507680, “University of Dundee, Gates Library screen for HepG2 cell viability”.

The nature of the series: Human HepG2 cell viability assay in 384 well format. It is filed as toxicity, cell-based. More on the design: dose 125 nL, time 70.5 hour; concentration not given beside the values. The following applies: HepG2 cells, read-out: Inhibition.

On to `O=C(CCc1nc2cccnc2[nH]1)NCc1ccncc1`, for which the cytotoxicity at 70.5 h is -19.4%.
In the case of `Cn1c(CN2CCCCCC2)cc(=O)c(O)c1CN1CCCC1`, the cytotoxicity at 70.5 h turned out to be 51.6%.
`Cn1c(C(=O)Nc2nc[nH]n2)cc2ccccc21`: the cytotoxicity at 70.5 h amounted to 10.4%.
Next, `O=C(CCCNC(=O)c1cnccn1)Nc1ncc[nH]1`: -27.2%; `COCCn1ccc2c(C(=O)NCC3CCCO3)cccc21` (configuration not stated): -8.34%; `COCCn1cc(CC(=O)Nc2nc[nH]n2)c2ccccc21`: -6.37%.
For the compound `COc1ccc2cc(NC(=O)CCCNc3ncccn3)cnc2c1`, the cytotoxicity at 70.5 h is -30.3%.
Consider `Cc1c(C2SCC(=O)Nc3c2c(O)nn3C2CCCCC2)cnn1C` (configuration not stated), for which the cytotoxicity at 70.5 h is -24.4%.
`O=C1CSC(C(F)(F)F)c2c(O)nn(C3CCCC3)c2N1` (configuration not stated): the cytotoxicity at 70.5 h was -22.6%.
As to `CC(C)C1SCC(=O)Nc2c1cnn2-c1ccc(Cl)cc1` (configuration not stated), the cytotoxicity at 70.5 h is -1.66%.
`O=C(CCN1C(=O)CC2(CCCC2)C1=O)NCCc1nccs1`: the cytotoxicity at 70.5 h is -22.6%.
Next, `Cc1nn(C)cc1C1SCC(=O)Nc2c1c(O)nn2C(C)C` (configuration not stated): -31.1%.
For `COCCn1cc(C(=O)NC2CCS(=O)(=O)C2)c2ccccc2c1=O` (configuration not stated) the value was -14.8%; for `O=C(NCCc1nccs1)[C@H](c1ccccc1)n1cnnn1`, -5.33%.
As to `Cn1cc(-c2nnc3sc(C4CC4)nn23)cn1`, the cytotoxicity at 70.5 h was -4.13%.
As for `O=C(CCc1nc2cc(Br)cnc2[nH]1)NCCCn1ccnc1`, the cytotoxicity at 70.5 h was -17.5%.
For `CC(C)(C)C1SCC(=O)Nc2c1c(O)nn2C1CCCC1` (configuration not stated) the value was -21.9%; for `COCCn1cc(C(=O)Nc2nc3c(s2)CCC3)c2ccccc21`, 37%; for `Cc1nn2c(-c3snnc3C)nnc2s1`, 27.8%.
Next, `COc1cccc(-c2cc(C(=O)Nc3nc[nH]n3)[nH]n2)c1`: -11.1%; `Cc1cc(-c2nn3c(C4CC4)nnc3s2)on1`: 12.2%.
For `COc1ccc(-c2cc(C(=O)Nc3nc[nH]n3)[nH]n2)cc1` the value was -12.1%; for `Cn1ccc2c(C(=O)NCCCN3CCOCC3)cccc21`, 11.5%.
In the case of `Cn1cnc2cc(CCC(=O)Nc3nc[nH]n3)ccc21`, the cytotoxicity at 70.5 h is -0.94%.
With `COc1ccc2c(c1)c(C(=O)Nc1cc(C)n(C)n1)cn2C(C)C`, the cytotoxicity at 70.5 h is -0.21%.
Regarding `COCCn1ccc2c(NC(=O)c3n[nH]c4c3CCCC4)cccc21`, the cytotoxicity at 70.5 h was determined as 7.53%.
For the compound `COc1ccc2c(ccn2CCC(=O)Nc2nc[nH]n2)c1`, the cytotoxicity at 70.5 h was found to be 0.0223%.
For `CSCCC(Nc1nc(C)cc(C)n1)C(=O)NC1CC1` (configuration not stated) the value was -10.9%.
On to `O=C(C1CC(=O)N(c2n[nH]c3cc(Br)ccc23)C1)N1CCCC1` (configuration not stated), for which the cytotoxicity at 70.5 h is -9.16%.
Take `Cc1nnsc1-c1nnc2sc(C(C)C)nn12`: the cytotoxicity at 70.5 h amounted to 3.22%.
For `COCCn1cc(CC(=O)Nc2c(C)nn(C)c2C)c2ccccc21` the value was -5.58%; for `CCCN1CCC(Cc2noc(-c3cc4cccnc4nc3C)n2)CC1`, 0.578%; for `CC(O)c1cccc(N2CCC3(CC2)Nc2ccccc2NC3=O)n1` (configuration not stated), 21.3%.
As to `CSc1nccc(N2CCN(C)C3(CCC(=O)N(CC4CC4)CC3)C2)n1` (configuration not stated), the cytotoxicity at 70.5 h amounted to 1.61%.
Next, `O=C(c1cnccn1)N1C[C@@H]2CC[C@H](C1)N(C(=O)CCc1ccsc1)C2`: -0.591%; `CCc1c(C)nc(C)nc1N1CCC(NCCSc2nnnn2C)CC1`: -6.49%.
For `Cc1c(C(=O)NCC2CCN(Cc3c[nH]cn3)C2)[nH]c2ccccc12` (configuration not stated) the value was 8.7%; for `c1cncc(NCCCNC2CCSC2)c1` (configuration not stated), -3.16%; for `CCCn1cc(-c2ccnc(NC3CCc4ccccc43)n2)c(C)n1` (configuration not stated), 4.9%.
For `COc1ccc(C(=O)N2CC(c3ccncc3)C2)c(OC)c1OC`, the cytotoxicity at 70.5 h is -5.75%.
In the case of `Cc1cc(C)n(C2CCCN(C(=O)c3ccc4c(c3)COC4)C2)n1` (configuration not stated), the cytotoxicity at 70.5 h was found to be 1.09%.
Next, `Cc1cc(C)n(CC2CCCN2C(=O)c2cccn3ccnc23)n1` (configuration not stated): -1.92%; `Cc1nc(C)n(C2CCCN(C(=O)c3ccc(O)nc3)C2)n1` (configuration not stated): -5.29%; `CC(C)=CCN1CCN(Cc2nccn2C)C(C)C1` (configuration not stated): 22%.
On to `CCc1nc(C2CCCN2C(=O)c2ccc(N(C)C)nn2)no1` (configuration not stated), for which the cytotoxicity at 70.5 h is -0.946%.
For `Cc1cc(C(=O)N2CCCC2c2noc(C(C)C)n2)c(C)o1` (configuration not stated) the value was -3.94%; for `c1cnn(CC2CCCCN2c2ncnc3ccsc23)c1` (configuration not stated), 18.2%; for `CC(=O)N(Cc1ncc(C(C)C)o1)C1CCN(Cc2cc(C)no2)C1` (configuration not stated), -4.1%.
Take `CC(=O)N(Cc1ncc(C(C)C)o1)C1CCN(Cc2cc(C)on2)C1` (configuration not stated): the cytotoxicity at 70.5 h was -6.93%.
In the case of `Cc1nc(CN2CCCC2c2noc(C3CC3)n2)oc1C` (configuration not stated), the cytotoxicity at 70.5 h is -9.58%.
For `c1cnc(-c2nc(CN3CCCC(N4CCCC4)C3)cs2)nc1` (configuration not stated) the value was -3.36%.
For the compound `CCN(CC)CC1CCN(C(=O)CCn2cccn2)CC1`, the cytotoxicity at 70.5 h was -1.21%.
For the compound `COc1cccc(CC(=O)N2CCC(NCc3c[nH]nc3C)CC2)c1`, the cytotoxicity at 70.5 h is -4.19%.
For `COC1CCN(C(=O)CCn2cccn2)CC1` the value was -8.03%; for `CCCC1CCCN(Cc2csc(-c3ncccn3)n2)CC1` (configuration not stated), -1.51%; for `Cc1nc(C2CCCN2Cc2nc(C3CC3)no2)no1` (configuration not stated), -2.5%.
For `CC(=O)NC1CCCN(Cc2csc(-c3ncccn3)n2)C1` (configuration not stated) the value was 18.7%; for `CC(=O)NCCNC(=O)c1sc(-c2ccc(Cl)cc2)nc1C`, -4.15%.
For `COC(=O)CNC(=O)c1sc(-c2ccc(Cl)s2)nc1C` the value was -3.49%; for `O=C(Nc1ccc(CCN2CCOCC2)cc1)C1CC1`, -4.46%.
On to `CCN1CCN(C(=O)c2ccc(Cn3ccccc3=O)o2)CC1`, for which the cytotoxicity at 70.5 h was -9.18%.
For `Cc1nc(-c2ccc(Cl)s2)sc1C(=O)NCCCC(N)=O` the value was -4.42%; for `O=C(NCc1csc(Br)c1)N1CCC(O)CC1`, -4.25%.
For `NC(=O)C1CCN(Cc2csc(-c3ncccn3)n2)CC1` the value was 18.7%; for `Cc1ccc(-c2nc(C(=O)N3CCCC(C(N)=O)C3)cs2)c(C)c1` (configuration not stated), -8.34%.
As to `Cc1ncc2c(n1)CN(Cc1nnc(-c3ccccc3)o1)CC2`, the cytotoxicity at 70.5 h is -7.67%.
`c1cncc(-c2noc(CNC3CCc4ncnn4C3)n2)c1` (configuration not stated): the cytotoxicity at 70.5 h is -5.95%.
Next, `c1csc(-c2noc(CNC3CCc4ncnn4C3)n2)c1` (configuration not stated): -8.26%; `CCC(=O)N1CCN(C(=O)Cn2cccn2)CC1`: -4.66%.
Next, `O=C(Nc1ccc(CCN2CCC(O)CC2)cc1)C1CCCOC1` (configuration not stated): -3.52%; `Cc1ccc(CCC(=O)N2CCOCC2c2ncon2)c(C)c1` (configuration not stated): 13.3%; `c1ncn(CC2CN(Cc3nc(C4CC4)no3)CCO2)n1` (configuration not stated): 17.2%.
Next, `CN(C)CC1CN(Cc2nc(-c3ccccn3)no2)CCO1` (configuration not stated): 16.4%.
As for `CC(C)c1nc(CN2CCOC(Cn3cncn3)C2)no1` (configuration not stated), the cytotoxicity at 70.5 h is -8.23%.
For `CC(NC(=O)NCCCN1CCCC1=O)c1nncn1C` (configuration not stated), the cytotoxicity at 70.5 h is -9.31%.
Take `CC(NC(=O)NCCCN1CCc2ccccc2C1)c1nncn1C` (configuration not stated): the cytotoxicity at 70.5 h was found to be 7.19%.
Next, `CS(=O)(=O)NCCC(=O)Nc1cnn(-c2ccccc2Cl)c1`: -11.9%.
For `CCCc1nc(C(C)(C)NC(=O)C2CC(=O)N(CCOC)C2)no1` (configuration not stated) the value was -10.7%; for `CCCc1nc(C(C)(C)NC(=O)C2CC(=O)N(C3CC3)C2)no1` (configuration not stated), -6.42%; for `CC(NC(=O)NCCCN1CCCCCC1=O)c1nncn1C` (configuration not stated), 10.2%.
As for `COc1c(CNCCNC(=O)c2ccc(C)cc2)c(C(C)C)nn1C`, the cytotoxicity at 70.5 h is -8.14%.
For `CCOc1cc(C)nc(N2CCN(C(=O)c3ccncc3)CC2)n1` the value was 5.92%; for `CCOc1cc(C)nc(N2CCN(C(=O)CN(C)C3CC3)CC2)n1`, -9.22%; for `CCOc1cc(C)nc(N2CCN(C(=O)c3cc(C)on3)CC2)n1`, -1.38%.
With `CCOc1cc(C)nc(N2CCN(C(=O)c3csnn3)CC2)n1`, the cytotoxicity at 70.5 h was -12.5%.
Next, `c1ccc(Cc2noc(CN3CCOC(Cn4cncn4)C3)n2)cc1` (configuration not stated): 12%; `Cc1cc(C(=O)N2CCCC(c3cc(C(F)(F)F)[nH]n3)C2)[nH]n1` (configuration not stated): 3.57%.
`Cc1cc(C(=O)N2CCCC(c3cc(C(F)(F)F)[nH]n3)C2)on1` (configuration not stated): the cytotoxicity at 70.5 h is -4.58%.
For the compound `Cc1ccc(C(=O)NS(=O)(=O)c2c(Cl)cccc2Cl)c(=O)[nH]1`, the cytotoxicity at 70.5 h was -5.05%.
For `Cc1ccc(C(=O)NS(=O)(=O)c2ccccc2Br)c(=O)[nH]1` the value was -7.74%; for `Cn1c(C2CC2)nc2c1CCN(Cc1nc(-c3ccsc3)no1)C2`, -10.5%; for `Cc1[nH]ncc1C(=O)N1CCCC(c2ccn[nH]2)C1` (configuration not stated), -12.2%.
For `COc1ccc(CCN(C)C2CCCN(Cc3noc(C)n3)C2)cc1` (configuration not stated) the value was 25%; for `O=C(CN1CCCC1c1noc(C2CC2)n1)NCCc1ccsc1` (configuration not stated), 4.35%; for `CC1CN(C)c2ccccc2N(C(=O)c2ccc(=O)n(C)c2)C1` (configuration not stated), 6.89%.
Next, `CN(Cc1nccn1C)C1CCN(CCc2ccccn2)CC1`: 0.568%; `COCCN1CCN(CCS(C)(=O)=O)CC1C` (configuration not stated): 8.39%; `N#Cc1cc(F)ccc1CN1CCCC1Cn1cccn1` (configuration not stated): -5.11%.
In the case of `COc1c(C2CCCN2CC(=O)Nc2cc(C)on2)c(C)nn1C` (configuration not stated), the cytotoxicity at 70.5 h came out at 12.2%.
Next, `COCCCN1CCN(CCOC)C(C)C1` (configuration not stated): 0.867%.
In the case of `N#Cc1ccc(CN2CCCCC2Cn2cccn2)cc1` (configuration not stated), the cytotoxicity at 70.5 h stood at 16%.
Next, `Cc1ncc(CNCCO)c2cc(C(=O)c3ccc(Br)cc3)oc12`: -18%.
